One test deals with T1, His-FGF2/GST-NΔ173 Tec (Homo sapiens, UniProt P42680).
T1 construct: made in house; host or cells: Tec: SF9 insect cells (baculovirus); FGF2: E. coli
Description: Alpha protein-protein interaction assay, FGF2 binding to Tec kinase. Particulars: dose-response, ± SEM, four independent experiments. As to the method: Alpha® protein-protein interaction assays with His-tagged FGF2 (125 nM) and GST-NΔ173 Tec (31.25 nM) (blue spheres) as well as His-tagged MBP-CARP (20 nM) and GST-titin (20 nM) (red squares) were conducted as described in the legend of FIG. 3 and in Experimental Procedures. Additionally, as a technical control, a single fusion protein containing both a GST- and a His-tag was used (20 nM; black triangles). Dose response curves were recorded with the three active compounds (#6, #14 and #21) as well as the two control compounds (#18 and #19) (FIG. 4). For each compound four independent experiments (each of which was conducted in three technical replicates) were performed. Data points were fitted using the non-linear regression function log (inhibitor) vs. response—variable slope (four parameters). Data were evaluated using GraphPad Prism (v5 for Mac OS X). Standard deviations are shown.
A Protein-Protein Interaction Assay Designed to Screen Small Molecule Libraries for Compounds Inhibiting FGF2 Binding to Tec Kinase (Alphascreen® Assay)
To quantify the interaction of FGF2 with Tec kinase under screening conditions, an assay was established based upon Alpha® technology. Briefly, this methodology is based on a pair of proteins of interest that bind to Alpha® donor and acceptor beads, respectively. Upon excitation of donor beads at 680 nm, singlet oxygen species are produced that can diffuse within a range of 200 nm. […] This in turn causes emission of light with a wave length of 520 nm that is detected as the Alpha® signal.
The optimal concentrations of His-tagged FGF2 and GST-tagged NΔ173 Tec in the Alphascreen were determinate in a cross-titration experiment (not shown) to be 31.25 nM and 62.5 nM, respectively. […] All Alpha® assays were carried out in white low volume 384-well plates (#6008280, ProxiPlate™) and read in an EnVision plate reader (Perkin Elmer). […]
AlphaScreen experiments were performed as described above. […] Following 60 min of incubation, Alpha® signals were recorded using an EnVision™ plate reader (PerkinElmer). […]

Test [1] concerns CHO cells stably expressing FGF2-GFP. Description: FGF2-GFP secretion by cell surface biotinylation. It counts as cell-based. Particulars: 10, 25 and 50 μM; mock 0.5% DMSO = 100%. The source says: A stable CHO cell line expressing an FGF2-GFP fusion protein in a doxycycline-dependent manner was used to quantify FGF2 transport to cell surfaces in the absence and presence of the small molecule inhibitors introduced in FIGS. 4, 5, 6 and 7. As detailed in Experimental Procedures, following cultivation of cells in the presence of compounds as indicated and induction of FGF2-GFP expression, proteins localized to the cell surface were biotinylated with a membrane-impermeable reagent. Following quenching of the biotinylation reagent, biotinylated proteins were purified using streptavidin beads. Following SDS-PAGE analyzing both the total lysate (input termed “cells”; 1.7%) and the biotinylated cell surface fraction (33%), a Western analysis was conducted to detect the secreted population of FGF2-GFP. Using appropriate fluorescent secondary antibodies, both FGF2-GFP and GAPDH (used as a control protein restricted to the intracellular space) were quantified using the LI-COR Odyssey imaging platform. FGF2-GFP secretion quantified under mock conditions (0.5% DMSO) was defined as 100% secretion efficiency. Standard deviations are shown from three independent experiments, each of which was conducted in two technical replicates. A two-tailed and unpaired T-test was conducted to assess statistical significance (* p<0.05, ** p<0.01, *** p<0.001, **** p<0.0001). “NS” indicates absence of significant differences.
Secreted FGF2 remains bound to heparan sulfates on cell surfaces without release into cell culture supernatants. This allows for biochemical detection of the secreted population based upon cell surface biotinylation experiments. CHO cells stably expressing FGF2-GFP in a doxycycline-dependent manner were cultivated in the presence of compounds #6, #14, #21, #18 and #19 (see FIGS. 4 and 5) at 10 μM, 25 μM and 50 μM in 0.5% DMSO (final concentration) as well as under mock conditions. […] Using appropriate fluorescent secondary antibodies, FGF2-GFP and GAPDH were quantified using the LI-COR Odyssey imaging platform. […]

Entries after “also recorded” stand apart in the source; their conditions may differ.

T1 sequence (P42680 174-631 limits assumed, stated change not applied): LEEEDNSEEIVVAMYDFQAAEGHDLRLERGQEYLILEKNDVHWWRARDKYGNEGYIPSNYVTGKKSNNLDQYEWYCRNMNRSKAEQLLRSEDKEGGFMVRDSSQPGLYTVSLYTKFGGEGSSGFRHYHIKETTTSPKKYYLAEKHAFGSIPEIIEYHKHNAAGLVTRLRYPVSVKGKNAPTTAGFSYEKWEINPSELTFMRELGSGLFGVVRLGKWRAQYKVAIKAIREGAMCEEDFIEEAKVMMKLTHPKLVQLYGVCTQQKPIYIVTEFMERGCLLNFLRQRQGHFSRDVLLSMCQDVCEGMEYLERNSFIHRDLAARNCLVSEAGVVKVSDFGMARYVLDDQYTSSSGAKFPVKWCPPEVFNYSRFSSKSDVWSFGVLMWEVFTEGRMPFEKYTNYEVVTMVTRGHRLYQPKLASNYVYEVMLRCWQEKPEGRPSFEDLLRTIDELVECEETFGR

Compound `COC(=O)c1c(C)[nH]c(C(=O)OCc2cc(=O)n3c(C)cccc3n2)c1C` [compound #6] came in with a half-inhibitory concentration (IC50) on His-FGF2/GST-NΔ173 Tec of 8.9 µM. The “inhibition of FGF2 secretion from cells” value in test [1] was “inhibition was observed in a dose-dependent manner”.
For `CC(=O)c1c(C)[nH]c(C(=O)OCc2cc(=O)n3cc(Br)ccc3n2)c1C` [compound #14], in that order: 7 µM and “inhibition was observed in a dose-dependent manner”.
`CC(=O)c1c(C)[nH]c(C(=O)CSc2nc3cc(Cl)cnc3[nH]2)c1C` [compound #21] had an IC50 on His-FGF2/GST-NΔ173 Tec of 11.7 µM. In test [1], the “inhibition of FGF2 secretion from cells” value was “inhibition was stronger at 10 μM compared to higher concentrations; also recorded: robust inhibition at 10 μM and somewhat less efficient inhibition at 25 and 50 μM”.

What is called IC50 is the point on the concentration scale where inhibition reaches its midpoint. A lower IC50 goes with inhibition by little substance.

These data come from US10842793B2, “Inhibitors of the unconventional secretion of fibroblast growth factor 2 (FGF2) by tumor cells and uses thereof” (Universität Heidelberg, priority 2016, dated 2020).
